According to patent US20220184162A1, “PREPARATIONS CONTAINING BERRY EXTRACTS FOR USE IN TREATING CANCER” (Evonik Operations GmbH, priority 2019, published 2022):

How the values were obtained:
[1] = tested on: CD4+ T cells in activated PBMCs; test: Analysis of T cell populations via flow cytometry, CD4+; format: cell-based, human; details: FIG. 7
Protocol: (§1) Sample preparation and plate set-up was used as described before in the T cell activation assay. Primary PBMCs were seeded on activating surface (anti-CD3, anti-CD28) with medium containing 1000 U/ml IL-2 for 2 days. The activated PBMCs were then cultured with the prepared sample concentrations in medium containing 100 U/ml IL-2 every day from day 3 on after isolation. Half medium change with fresh samples and flow cytometry measurement was performed every day. All cells for flow cytometry were labelled with an antibody mixture containing Annexin V_Alexa594, anti-CD4_APC and anti-CD8_PE for CD-marker as well as live-dead staining.
(§2) PBMS were activated by using an activating surface and the addition of Interleukin-2 to the cell culture media. The activated PBMCs, which contain T-cells as the most prominent cell type, were treated with the berry extracts or the anthocyanins from day 3 on after isolation. To evaluate the different T cell population flow cytometry analysis were performed with anti-CD4 and anti-CD8 antibodies in combination with Annexin V staining as live-dead-staining.

[2] = tested on: activated PBMCs; test: Influence on proliferation of activated PBMCs (anti-CD3/anti-CD28, IL-2; CellTrace CFSE); format: cell-based, human; details: for Median Fluorescence Day 2 Average / Median Fluorescence Day 3 Average: CellTrace CFSE, activated PBMCs, 100 U/ml IL-2; for proliferation of activated PBMCs on day 3 (in words): versus water, maltodextrin or solvent control
Text: (§3) Upon recognition of a foreign substance (foreign peptide presented on MHC) by the T cell receptor (TCR) and stimulation of the co-receptor CD28 the T cells start to proliferate. Thus, proliferation is a clear indication of T cell activation. Another classic activation marker for T cells is CD25, the high affinity receptor for the interleukin IL-2. This protein is not expressed by resting T cells and transcription is induced by TCR signaling. Thus, the presence of CD25 on the surface of T cells is a clear indicator of T cell activation. On the contrary, T cell exhaustion correlates with the signaling-induced expression of PD-1 on the surface of the T cells. To test the impact of substances on T cell activation, proliferation as well as CD25 and PD-1 upregulation, are used as readouts. Primary human Peripheral blood mononuclear cells (PBMCs) isolated from the blood of healthy donors (including primary T-cells) were used. PBMC cells represent a heterogenic population with 45-80% T cells, 5-20% B cells, 10-25% monocytes and 5-20% NK cells.
(§4) CellTrace™ stock solution was prepared according to the manual; addition of 15 μL DMSO to the CellTrace™ reagent and mixed well. Cell suspension was adjusted to 10^6 cells/mL in RPMI without FBS before addition of 1 μL CellTrace™ stock solution to each mL of cell suspension. After 20 minutes incubation (protected from light) of the cells at room temperature, five times the volume of culture medium was added and then again incubated for 5 min at room temperature. Afterwards the cells were centrifuged (300×g for 5 min) and the pellet resuspended in fresh culture medium. As last step the cells were incubated at 37° C. with 5% CO2 for 1-2 hours before the set-up of the experiment.
(§5) Following CFSE labelling and recovering at 37° C. with 5% CO2, cells were mixed with the extract as follows: 20 μL of extract were placed in a 96-well u-bottom culture plate as triplicates, then 180 μL cell suspension was added on top and mixed. Final concentration of the cells was 5*10^4 cells/well (=2.5*10^5 cells/mL).
(§6) Sample format: 96 well with 200 μL/well and 10,000 events measured per sample. FACS (fluorescence activated cell sorting) gating was performed via SSC (sideward scatter) versus FSC (forward scatter) density blot. A gate has been applied to identify viable cells. Percentage of viable cells was determined for all samples of a 96-well plate.
(§7) CellTrace™ CFSE median fluorescence (488 nm excitation and a 530/30 nm bandpass emission filter): From viable cell population single cells were determined and viable, single cells within the gate defined in a histogram to evaluate the level of fluorescence intensity of cells labelled with CellTrace™ CFSE. Cell proliferation was followed for 7 days. With increasing level of proliferation median fluorescence decreases, shown as shift of peak from right to left within the flow cytometer; non-labeled cells shown on the far-left side. Median fluorescence was determined as read-out. Earliest observable influence on proliferation and activation was expected after 3 days of incubation with the test compounds.
PBMCs isolated from blood were activated for 2 days on an activating surface with anti-CD3 (UCHT1) and anti-CD28. Activated PBMCs were then induced to proliferate by adding 1000 U/ml IL-2. Therefore, the cells were transferred to a new dish without activating antibodies and 2 days later the activated cells were used to set up the experiment. 40*10^6 cells were used for CFSE staining and cultured with extracts in RPMI 1640 with 10% FBS, 1% HEPS (10 mM), 0.1% β-mecaptoethanol (50 μM), 0.5% Pen/Strep and 100 U/ml IL-2.
(§8) Water, DMSO or DMF were used as negative control; UCHT1 (anti-CD3) antibody as positive control. The samples plate set-up was used as follows:
(§9) Half medium change with fresh extracts of final concentration was done every day.
In the next experiment the effect of the test compounds on the proliferation of activated PBMCs was evaluated. […]

[3] = tested on: isolated PBMCs (non-activated); test: Activating effect on isolated non-activated PBMCs (CellTrace CFSE proliferation, flow cytometry); format: cell-based, human; details: for Median Fluorescence Day 7 Average / Median Fluorescence Day 2 Average: CellTrace CFSE; for Median Fluorescence Day 2 Average: no activation stimulus
Text: as §3, §4, §5, §6, §7
All cells (40*10^6) of one vial of frozen PBMC's (non-activated) were used for CFSE staining and cultured with extracts as follows: Day 0-3 in RPMI 1640 with 10% FBS, 1% HEPS (10 mM); day 3-7 in RPMI 1640 with 10% FBS, 1% HEPS (10 mM) and 100 U/mL IL-2.
as §8, §9
To evaluate, if the chosen test compounds could have an activating effect on isolated PBMCs (Peripheral Blood Mononuclear Cells) and induce them to proliferate, PBMCs were incubated together with the test compounds in different concentrations. […]

[4] = tested on: CD8+ T cells in activated PBMCs; test: Analysis of T cell populations via flow cytometry, CD8+; format: cell-based, human; details: FIG. 6
Protocol: as §1, §2

[5] = tested on: Jurkat cells (T cell leukemia); test: Cell viability (Cell Titer Glo, ATP luminescence); format: cell-based; details: increasing concentrations; FIG. 8A, FIG. 9
Protocol: Similar cell viability assays were performed with additional cell lines (HeLa, Jurkat, Mt4 and THP-1) and using the Cell Titer Glo Assay. In order to further evaluate the effect of Healthberry® 865 on T cell populations and specifically the CD4+ populations, additional cell viability analysis was performed. On the basis that Healthberry® 865 has an influence on the CD4+ cell populations and additionally on the activation status of T cells, specifically T cell leukemia/lymphoma cell lines as Jurkat (T cell leukemia) and Mt4 (HTLV-I positive; human T-cell lymphotropic virus type I retrovirus causes adult T-cell leukemia-lymphoma) cells were chosen as in vitro models. Furthermore, control cell lines were chosen, which are not CD4^+ such as HeLa cells (epithelial cervix carcinoma) or which represent another type of leukemia such as THP-1 (acute monocytic leukemia). […] Cell viability tests were performed with the T cell leukemia cell lines Jurkat (FIG. 8A) and Mt4 (FIG. 8B) as well as with control cell lines such as the CD4 negative cervix carcinoma cell line HeLa (FIG. 8C) and the monocytic leukemia cell line THP 1 (FIG. 8D). Cell viability was evaluated based on ATP amount and via luminescence measurement. Samples were tested in triplicates.

SMILES | Median Fluorescence Day 2 Average ([2]; 15 μg/mL) | Median Fluorescence Day 3 Average ([2]; 15 μg/mL) | Median Fluorescence Day 2 Average ([2]; 30 μg/mL) | Median Fluorescence Day 3 Average ([2]; 30 μg/mL) | Median Fluorescence Day 2 Average ([2]; 75 μg/mL) | Median Fluorescence Day 3 Average ([2]; 75 μg/mL) | proliferation of activated PBMCs on day 3 (in words) [2] | Median Fluorescence Day 7 Average ([3]; 15 μg/mL, IL-2 from day 3) | Median Fluorescence Day 2 Average ([3]; 15 μg/mL) | Median Fluorescence Day 7 Average ([3]; 30 μg/mL, IL-2 from day 3) | Median Fluorescence Day 2 Average ([3]; 30 μg/mL) | Median Fluorescence Day 7 Average ([3]; 75 μg/mL, IL-2 from day 3) | Median Fluorescence Day 2 Average ([3]; 75 μg/mL) | also measured
C[C@@H]1O[C@@H](OC[C@H]2O[C@@H](Oc3cc4c(O)cc(O)cc4[o+]c3-c3cc(O)c(O)c(O)c3)[C@H](O)[C@@H](O)[C@@H]2O)[C@H](O)[C@H](O)[C@H]1O [D3R, delphinidin 3-rutinoside] | 14407 | 6602 | 15685 | 8150 | 19716 | 13927 | dose-dependent and significant decrease of proliferation | 20821 | 34772 | 25171 | 34646 | 44248 | 37453 | change of CD4+ T cells in comparison to controls [1]: most significant effects; activation / proliferation of non-activated PBMCs (in words) ([3]; 2 days up to 7 days incubation, IL-2 from day 3): slight decrease of proliferation; change of CD8+ T cells in comparison to controls [4]: most significant effects
C[C@@H]1O[C@@H](OC[C@H]2O[C@@H](Oc3cc4c(O)cc(O)cc4[o+]c3-c3ccc(O)c(O)c3)[C@H](O)[C@@H](O)[C@@H]2O)[C@H](O)[C@H](O)[C@H]1O [C3R, cyanidin 3-rutinoside] | 14630 | 6153 | 15317 | 7228 | 17032 | 11086 | dose-dependent and significant decrease of proliferation | 21030 | 33603 | 21539 | 33737 | 22855 | 34486 | 
OC[C@H]1O[C@@H](Oc2cc3c(O)cc(O)cc3[o+]c2-c2cc(O)c(O)c(O)c2)[C@H](O)[C@@H](O)[C@@H]1O [D3G, Delphinidin 3-glucoside] |  |  |  |  |  |  |  |  |  |  |  |  |  | cell viability (ATP amount, luminescence) [5]: specific reduction
CC1=C(/C=C/C(C)=C/C=C/C(C)=C/C=C/C=C(C)/C=C/C=C(C)/C=C/C2=C(C)C(=O)[C@@H](O)CC2(C)C)C(C)(C)C[C@H](O)C1=O [Astaxanthin, reference compound] |  |  |  |  |  |  | slower proliferation |  |  |  |  |  |  | Median Fluorescence Day 2 Average ([2]; 2 μg/mL): 14190; Median Fluorescence Day 3 Average ([2]; 2 μg/mL): 6502; Median Fluorescence Day 2 Average ([2]; 4 μg/mL): 15365; Median Fluorescence Day 3 Average ([2]; 4 μg/mL): 10055; Median Fluorescence Day 2 Average ([2]; 10 μg/mL): 19750; Median Fluorescence Day 3 Average ([2]; 10 μg/mL): 15342; Median Fluorescence Day 7 Average ([3]; 2 μg/mL, IL-2 from day 3): 20201; Median Fluorescence Day 2 Average ([3]; 2 μg/mL): 33336; Median Fluorescence Day 7 Average ([3]; 4 μg/mL, IL-2 from day 3): 19444; Median Fluorescence Day 2 Average ([3]; 4 μg/mL): 32336; Median Fluorescence Day 7 Average ([3]; 10 μg/mL, IL-2 from day 3): 16442; Median Fluorescence Day 2 Average ([3]; 10 μg/mL): 36178
